The test system of series [1] is patients with metastatic melanoma. The series is described as follows: Phase IIA clinical trial: safety and toxicity. Format: in vivo, human. As for the experimental part:
Disease sites were re-evaluated by clinical examination monthly or CT every 2 months, or more frequently if disease progression was suspected.
It was planned to recruit 14 patients with disease suitable for biopsy as the first cohort. […] If at least one response occurred, a further 13 patients (not necessarily with disease suited for biopsy) would be recruited. Response and toxicity were assessed using WHO criteria.

Series [2] can be described thus: Plasma concentrations by HPLC with fluorescence detection. Format: in vivo, human. The conditions noted are these: for concentration at 28 day: human, plasma, oral. The method, then:
Therefore, the tumour tissue was frozen and cut into as small as possible pieces with a scalpel. The pieces were weighed, added to 1 ml of water, vortexed and thereafter treated like plasma. The assay for plasma samples was validated with acceptable calibration curves, within-study variability and total recovery. […] Due to limited availability of tumour tissue, the within-study validation for tumour assay was not performed.

The test system of series [3] is acute myeloid leukaemia (AML). The arrangement: method as in Stone et al, 2005. The conditions noted are these: ref Stone et al, 2005, cited from earlier work.

We go through one compound from publication PMC2360547 (British Journal of Cancer, 2006).

Molecules are shown by their SMILES. Values joined by “and” are separate entries in the source; they are usually repeats but may differ in a detail not shown here. Equal entries are not always repeated. Where two headings read alike, the source gives them in different places.

In turn, `CO[C@@H]1[C@H](N(C)C(=O)c2ccccc2)C[C@H]2O[C@]1(C)n1c3ccccc3c3c4c(c5c6ccccc6n2c5c31)C(=O)NC4` [Midostaurin, N-benzoyl-staurosporine] returned a Patients with anaemia in series [1] (17 patients) of 12 patients. For the same compound, the “Patients with anaemia reaching grade 2” value in series [1] (17 patients) is “five”. Also, the “Patients requiring dose modification for nausea or vomiting” value in series [1] (17 patients, 75 mg p.o. t.i.d.) was “Two”. Also, the Patients with hyperglycemia result in series [1] (17 patients, one of Grade 2 severity) is reported as “Four”. In addition, the “Patients with elevated liver enzymes (alanine transaminase or aspartate transaminase) possibly linked to therapy” value in series [1] (17 patients, only one reached grade 2) is on record as “four”. In series [1] (seven out of 17 patients, 75 mg p.o. t.i.d.), the “Patients who discontinued owing to nausea, vomiting, diarrhoea and/or fatigue possibly related to study drug” value is reported as 41%. The concentration at 28 day in series [2] (75 mg three times a day, calculated for median plasma concentration of 2342 nM and 99% protein binding, read-out: Free plasma concentration) was 23.4 nM; in series [2] (75 mg tid, 12 subjects, about 1 month of 75 mg tid, read-out: Plasma concentrations, maximum) it was 4650 nM; in series [2] (75 mg tid, 12 subjects, about 1 month of 75 mg tid, read-out: Plasma concentrations, mean) it was 2450 nM; in series [2] (75 mg tid, 12 subjects, about 1 month of 75 mg tid, read-out: Plasma concentrations, median), 2340 nM; in series [2] (75 mg tid, 12 subjects, about 1 month of 75 mg tid, read-out: Plasma concentrations, minimum) it was 771 nM; in series [2] (75 mg tid, 12 subjects, about 1 month of 75 mg tid, read-out: Plasma trough concentrations, range) it was 771 to 4650 nM. The Plasma concentrations in series [2] (individual subjects, sampling day 27-30, midostaurin 75 mg tid) was 2614 nM and 1639 nM and 771 nM and 2901 nM and 2226 nM and 2387 nM and 4649 nM and 1765 nM and 1437 nM and 2297 nM and 3549 nM and 3212 nM. Besides, the Tolerability entry in series [3] (225 mg day−1 in AML) is listed as “well-tolerated”. Moreover, in series [3], the “AML patients with a 50% reduction in bone marrow blast cells” value is on record as 25%. In addition, the “AML patients with a 50% reduction of peripheral blood blast cells” value in series [3] is reported as 70%.
